Assay results reported in the METLIN SMRT retention time set (Domingo-Almenara et al. 2019).

Assay: gradient 5% acetonitrile 3 min, to 50% in 2 min, to 85% in 15 min, held 3 min, 100 µL/min
Settings: column: Zorbax Extend-C18 2.1 x 50 mm; eluents: water / acetonitrile, 0.1% formic acid
In short: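 Retention times come from adduct peaks that were picked computationally and then checked by hand. The standards, pure and pooled in mixtures of ~100 molecules, were run on a Zorbax Extend-C18 column (2.1 × 50 mm, 1.8 μm) at 100 μL/min with water and acetonitrile, each with 0.1% formic acid. Detection was by quadrupole time-of-flight mass spectrometry in positive and negative ionization mode, with a dead volume of 40 μL and a dwell volume of 900 μL.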
In the case of `Cc1ccc(NC(=O)c2nc(C(C)C)oc2C)c(C)c1`, the RP-LC retention time is reported as 1190 s. `O=C1CC(C(=O)N2CCCC2)CN1CCc1c[nH]c2ccc(Cl)cc12` (centres undefined) gave an RP-LC retention time of 731 s. Compound `Cc1ccc(-c2ncc3c(=O)n(Cc4ccc(F)cc4)c(=O)n(C)c3n2)cc1` has an RP-LC retention time of 1260 s. With `CCCN(C)c1nccn2c(=O)n(CC(=O)Nc3ccc(C)cc3Cl)nc12` the RP-LC retention time was 736 s. Compound `COc1cc(-c2nc3ccccn3c2Nc2ccccc2C)ccc1O` has an RP-LC retention time of 650 s. Compound `CCc1nc(-c2csc(S(=O)(=O)N3CCC(C(=O)Nc4ccc(Cl)cc4C)CC3)c2)no1` has an RP-LC retention time of 1180 s. Work on `CCn1cnc(S(=O)(=O)N2CCC(C(=O)NCc3ccc(OC(C)C)cc3)CC2)c1` yielded an RP-LC retention time of 749 s. Work on `COc1ccc(OC)c(S(=O)(=O)N2CCCC(C(=O)NCc3ccccc3)C2)c1` (centres undefined) yielded an RP-LC retention time of 841 s. In the case of `Cc1nn2c(CNS(=O)(=O)c3ccc(F)c(Cl)c3)c(-c3ccccc3)nc2s1`, the RP-LC retention time is reported as 942 s. `Cc1ccc(C)c(NC(=O)Nc2ccc(-c3cn4ccc(C)nc4n3)cc2)c1` gave an RP-LC retention time of 690 s. Compound `CCc1ccc(C2=C(C)C(N3CCC(NC(=O)C(C)(C)CC)CC3)=NS2(=O)=O)cc1` has an RP-LC retention time of 965 s. `Cc1ccc(-c2nc3n(CC(=O)NC(C)C)c4c(c(=O)n3n2)CCC4)cc1` showed an RP-LC retention time of 733 s. In the case of `CCc1ccc(NC(=O)Cn2nc3n(c2=O)CCCC3)cc1`, the RP-LC retention time is reported as 669 s. Compound `COCCn1nc2n(c1=O)CCC1(CC2)CCN(C(=O)C2CCOC2)CC1` (centres undefined) has an RP-LC retention time of 587 s. Work on `O=C(CN1C(=O)C(C(=O)N2CCCC2)Sc2ccccc21)Nc1ccc(F)cc1` (centres undefined) yielded an RP-LC retention time of 978 s. Work on `CCOC(=O)N1CCN(C(=O)Cn2nc(-c3ccccc3)cc(N)c2=O)CC1` yielded an RP-LC retention time of 673 s. In the case of `COc1ccc(C)cc1NC(=O)N1C[C@@H]2C[C@H](NC(=O)c3cccs3)[C@H]1C2`, the RP-LC retention time is reported as 827 s. `O=C1CCCc2c1cc(C(=O)N1CCCCC1)c(=O)n2-c1ccc(F)cc1` gave an RP-LC retention time of 704 s. Work on `COCCN1C(=O)[C@H]2CN(C(=O)Nc3ccccc3)C[C@H]2C1=O` yielded an RP-LC retention time of 732 s. Work on `CCNS(=O)(=O)c1cccc(-c2nnc(-c3ccc(C)cc3)o2)c1` yielded an RP-LC retention time of 922 s. Compound `CC(=O)N1CC(C)Oc2ccc(S(=O)(=O)N3CCC(c4ccncc4)CC3)cc21` (centres undefined) has an RP-LC retention time of 572 s. Compound `COc1ccc(NC(=O)Cn2c(=O)c3cc(C4CC4)nn3c3ncccc32)cc1Cl` has an RP-LC retention time of 807 s. Compound `Cc1ccc(-n2ccc(=O)c(-c3nc(-c4ccccc4)no3)n2)cc1` has an RP-LC retention time of 888 s. In the case of `CCCc1noc(-c2cccnc2N2CCCN(Cc3ccc(Cl)cc3)CC2)n1`, the RP-LC retention time is reported as 754 s. `CCN(CC)C(=O)c1ccc2c(c1)N(CC(=O)NCCC1=CCCCC1)C(=O)CS2` gave an RP-LC retention time of 864 s. In the case of `Cc1sc(-c2cc(C(F)(F)F)[nH]n2)cc1S(=O)(=O)N1CCN(c2ccc(Cl)cc2)CC1`, the RP-LC retention time is reported as 1180 s. `COC(=O)c1ccc2c(=O)n(Cc3ccc(F)cc3)c(N3CCCC3)nc2c1` showed an RP-LC retention time of 1060 s. `Cn1c(C(=O)NCc2ccccc2)cc2sc(Cl)cc21` showed an RP-LC retention time of 1060 s. Compound `COc1ccc(-c2noc(C3CCCN3C(=O)c3cc(F)cc(F)c3)n2)cc1` (centres undefined) has an RP-LC retention time of 1020 s. `CN(C)CCCNC(=O)C1CCN(c2nc3ccc(-c4cccc(F)c4)nc3s2)CC1` showed an RP-LC retention time of 691 s. Compound `CCOc1ccccc1C(=O)Nc1c(-c2ccc(F)cc2)nc2ccccn12` has an RP-LC retention time of 719 s. With `COc1ccc(OC)c(CNC(=O)C2CCN(Cc3cn(C)c4ccc(Cl)cc34)CC2)c1` the RP-LC retention time was 717 s. For `CCN1CCN(C(=O)Cc2c(C(=O)O)c(C)cn2CC)CC1`, the RP-LC retention time was 568 s. For `CCc1nc2cc(-c3noc(-c4ccc(OC)cc4C)n3)ccc2o1`, the RP-LC retention time was 1270 s. For `Cc1cccc(NC(=O)Cc2nnc(-c3cnccn3)o2)c1C`, the RP-LC retention time was 678 s. With `COc1ccccc1CCNC(=O)CSc1nc(=O)n(Cc2ccco2)c2c1CCC2` the RP-LC retention time was 739 s. Compound `CN(CC1CCOCC1)C(=O)Nc1cccc(C(F)(F)F)c1` has an RP-LC retention time of 816 s. In the case of `CCCc1noc(-c2ccc3nnc(CC(=O)Nc4cc(C)cc(C)c4)n3c2)n1`, the RP-LC retention time is reported as 947 s. With `Cc1ccc(C(=O)N2CCCC(c3ccnc(Nc4ccc(F)cc4)n3)C2)s1` (centres undefined) the RP-LC retention time was 1020 s. `COc1ccc(-c2nn3c(N4CCN(c5ccccn5)CC4)cc(C)nc3c2C)cc1OC` showed an RP-LC retention time of 606 s. `Cc1nc(C(=O)Nc2ccc(F)cc2)c(C)o1` gave an RP-LC retention time of 848 s. For `Cn1ncc2c3ccccc3n(CC(=O)NC3CCN(Cc4ccccc4)CC3)c2c1=O`, the RP-LC retention time was 624 s. Work on `Cc1ccc(NC(=O)C2CCCN(S(=O)(=O)c3cn(C(C)C)cn3)C2)cc1C` (centres undefined) yielded an RP-LC retention time of 829 s. Work on `O=C(c1cccc2[nH]ccc12)N1CCCC1c1nc(-c2cccc(Cl)c2)no1` (centres undefined) yielded an RP-LC retention time of 993 s. For `CCC(=O)Nc1cnc(-c2ccc(F)cc2)nc1`, the RP-LC retention time was 794 s. With `COc1ccc(CN2CC(C(=O)NC3(c4nc(C)no4)CCCCC3)CC2=O)cc1` (centres undefined) the RP-LC retention time was 706 s. In the case of `Cc1ccc2nc(-c3cc(Br)ccc3F)c(Nc3ccc4c(c3)OCCO4)n2c1`, the RP-LC retention time is reported as 737 s. In the case of `CC(=O)N1CCc2c(c(CNC(=O)c3cncn3C)nn2C)C1`, the RP-LC retention time is reported as 558 s. `CCOc1ccccc1-c1nc(Cn2cnc3onc(C)c3c2=O)c(C)o1` showed an RP-LC retention time of 928 s. Work on `Cc1nc2cccnc2n1-c1cccc(C(=O)N2CCN(c3ccccn3)CC2)c1` yielded an RP-LC retention time of 568 s. For `CC(C)OCCCNC(=O)CN1C(=O)C2CCCCN2c2ccc(C(=O)N3CCCC3)cc21` (centres undefined), the RP-LC retention time was 746 s. For `Cc1sc(C)c(S(=O)(=O)Nc2ccccc2Cl)c1-c1cc(C(F)(F)F)on1`, the RP-LC retention time was 1140 s. Compound `COc1ccc(-c2noc(-c3nc(C(C)C)no3)n2)cc1` has an RP-LC retention time of 1120 s. With `Cc1ccc(-c2nccn3cc(C(=O)N4CCOCC4)nc23)cc1` the RP-LC retention time was 748 s. `Cc1csc(-c2cc(S(=O)(=O)NCCN3CCC(C)CC3)cn2CC(=O)N2CCCCC2)n1` showed an RP-LC retention time of 679 s. `CCOC(=O)C1CCN(S(=O)(=O)c2cccc(-c3cn4ccccc4n3)c2)CC1` gave an RP-LC retention time of 676 s. `Cc1cccc2c(=O)n(C3CCN(S(=O)(=O)c4ccc(CC(C)C)cc4)CC3)cnc12` gave an RP-LC retention time of 1230 s. `O=C(Nc1nccnc1C(=O)NCc1cccnc1)c1ccccc1` gave an RP-LC retention time of 584 s. `COc1ccc(-c2noc(CN3CCN(c4ccccn4)CC3)n2)cc1` showed an RP-LC retention time of 621 s. With `Cc1ccc(NC(=O)NCC2CCOCC2)c(Cl)c1` the RP-LC retention time was 720 s. For `CCN1CCC(N(Cc2cccs2)C(=O)Nc2cccc(Br)c2)CC1`, the RP-LC retention time was 693 s. Compound `COc1ccc(-c2nc(C)cc(C)c2CNS(=O)(=O)c2cccc(C#N)c2)cc1` has an RP-LC retention time of 640 s. With `Cc1ccc([N+](=O)[O-])cc1S(=O)(=O)N1CCN(c2cccc(Cl)c2)CC1` the RP-LC retention time was 618 s. With `COc1ccc(-n2nnc(-c3nc(C)c(C(=O)NCc4ccco4)s3)c2C)cc1` the RP-LC retention time was 879 s. `Cn1cc(CN2CCC(C(=O)NC3CCCCC3)CC2)c2cc(Cl)ccc21` showed an RP-LC retention time of 702 s. With `CNC(=O)c1sc2nc(-c3ccc(C)cc3)c(NCCOC)n2c1C` the RP-LC retention time was 712 s. Compound `CCS(=O)(=O)c1nc2ccc(NS(=O)(=O)c3cc(OC)ccc3OC)cc2s1` has an RP-LC retention time of 833 s. In the case of `COc1ccccc1-c1nnc(-c2cc(S(=O)(=O)N3CCCC3)ccc2Cl)o1`, the RP-LC retention time is reported as 951 s. For `Cc1cc(C)c(CN2CCC3(CC2)CC3c2noc(C)n2)c(C)c1` (centres undefined), the RP-LC retention time was 655 s. Work on `COc1cccc(Cc2nc(CCS(=O)(=O)c3ccc(F)cc3)no2)c1` yielded an RP-LC retention time of 904 s. `CCn1cc(CC(=O)N2CCC(N3CCCCC3)CC2)c2cccnc21` showed an RP-LC retention time of 553 s. For `COc1cc2oc(=O)cc(C)c2cc1[N+](=O)[O-]`, the RP-LC retention time was 764 s. In the case of `Cc1noc(-c2ccc(OC3CN(C(=O)NC(C)C)C3)cc2)n1`, the RP-LC retention time is reported as 730 s. `Cc1nc(N2CCN(c3ncccn3)CC2)nc2c1C(=O)CC(/C=C/c1ccccc1)C2` (centres undefined) gave an RP-LC retention time of 1290 s. `CCN(CC)c1cc(CNC(=O)Nc2cc(OC)cc(OC)c2)ccn1` gave an RP-LC retention time of 620 s. `CCOCCCNC(=O)C1CCCN(c2nnc(C)c3c(C)n(-c4ccccc4)nc23)C1` (centres undefined) showed an RP-LC retention time of 655 s. For `Cc1cc(C(=O)Nc2nnc(-c3ccn(C)n3)o2)c(C)o1`, the RP-LC retention time was 617 s. `Cc1[nH]nc(-c2c(C)sc(C)c2S(=O)(=O)Nc2ccc(F)c(Cl)c2)c1C` showed an RP-LC retention time of 1140 s. With `COC(=O)c1nc(NC(=O)Cn2nc3c(cc2=O)CCCC3)sc1Cc1ccccc1` the RP-LC retention time was 868 s. Work on `CC(C)CNC(=O)c1ccc2c(ccn2C)c1` yielded an RP-LC retention time of 784 s. Compound `Cc1ccsc1C(=O)NCCC1CCN(C(=O)Nc2cc(F)cc(F)c2)CC1` has an RP-LC retention time of 915 s. `CC(C)NC(=O)C1CCN(c2cncnc2N(C)C)CC1` showed an RP-LC retention time of 580 s. `Cc1ccc(CNC(=O)C2(C)CCCN(C(=O)Nc3cccc(C)c3C)C2)cc1` (centres undefined) gave an RP-LC retention time of 978 s. With `Cc1csc(-c2ccc(N3CCN(C(=O)COc4ccc(Cl)cc4)CC3)nc2)n1` the RP-LC retention time was 925 s. Compound `COCCOC(=O)C1=C(C)NC2=C(C(=O)CC(C)(C)C2)C1c1cccc(OC)c1OC` (centres undefined) has an RP-LC retention time of 787 s. Compound `COc1ccccc1NS(=O)(=O)c1cc2c3c(c1)CCC(=O)N3CCC2` has an RP-LC retention time of 799 s. `COCCn1cc(CCNC(=O)Nc2ccc(C)c(F)c2)c2cccnc21` showed an RP-LC retention time of 772 s. `COc1ccc(Cl)cc1NS(=O)(=O)c1ccc2c(c1)C(=O)N(C)c1ncccc1O2` showed an RP-LC retention time of 958 s. In the case of `O=C(C1CCCC1)N1CCN(Cc2nnnn2-c2ccccc2)CC1`, the RP-LC retention time is reported as 712 s.
